Test results reported in US20240262833A1, “FUSED HETEROCYCLIC DERIVATIVES AS NEGATIVE ALLOSTERIC MODULATORS OF MGLU7 RECEPTOR” (Addex Pharma S.A., priority 2021, published 2024).

molecular target: T1, human metabotropic glutamate 7 receptor (hmGlu7) (Homo sapiens, UniProt Q14831); assay: mGlu7 assay on HEK-expressing human mGlu7: fluorescent cell based Ca2+ mobilization assay (FLIPR), inhibition of EC80 L-AP4 response; conditions: HEK-293 cells expressing hmGlu7; EC80 L-AP4 stimulation; mean of at least three independent experiments in duplicate; read-out: Ca2+ Flux (mean IC50)
T1 construct: expressed in transfected cells
Text: mGlu7 Assay on HEK-Expressing Human mGlu7
The cDNA encoding the human metabotropic glutamate 7 receptor (hmGlu7), (accession number NM_181874.2, NCBI Nucleotide database browser), was subcloned into an expression vector containing also the hygromycin resistance gene. In parallel, the cDNA encoding a G protein allowing redirection of the activation signal to intracellular calcium flux was subcloned into a different expression vector containing also the Puromycin resistance gene. Transfection of both these vectors into HEK293 cells with PolyFect reagent (Qiagen) according to supplier's protocol, and hygromycin and puromycin treatment allowed selection of antibiotic resistant cells which had integrated stably one or more copies of the plasmids. Positive cellular clones expressing hmGlu7 were identified in a functional assay measuring changes in calcium fluxes in response to glutamate and L-AP4 or known mGlu7 orthosteric antagonists.
HEK-293 cells expressing hmGlu7 were maintained in media containing DMEM, Fetal Bovine Serum (10%), Glutamax™ (2 mM), penicillin (100 units/mL), streptomycin (100 μg/mL), geneticin (100 μg/mL) and hygromycin-B (40 μg/mL) and puromycin (1 μg/mL) at 37° C. with 5% CO2 in a humidified atmosphere.
Fluorescent Cell Based-Ca^2+ Mobilization Assay Human mGlu7 HEK-293 cells were plated out 24 hours prior to a fluorescent cell-based calcium mobilization assay using FLIPR^384 assay (Molecular Device, Sunnyvale, CA, USA) in black-walled, clear-bottomed, poly-L-ornithine-coated 384-well plates at a density of 25,000 cells/well in a glutamine/glutamate free DMEM medium containing fetal bovine serum (10%), penicillin (100 units/mL), streptomycin (100 μg/mL) and doxycyline (1 μg/ml) at 37° C. with 5% CO2 in a humidified atmosphere.
On the day of the assay, the medium was aspirated and the cells were loaded with a 3 μM solution of Fluo4-AM (LuBioScience, Lucerne, Switzerland) in 0.03% pluronic acid. After 1 hour at 37° C./5% CO2, the non incorporated dye was removed by washing cell plate with the assay buffer. All assays were performed in a pH 7.4 buffered-solution containing 20 mM HEPES, 143 mM NaCl, 6 mM KCl, 1 mM MgSO4, 1 mM CaCl2, 0.125 mM sulfinpyrazone and 0.1% glucose.
After 10 s of basal fluorescence recording, various concentrations of the compounds of the invention were added to the cells. Changes in fluorescence levels were first monitored for 180 s in order to detect any agonist activity of the compounds. Then the cells were stimulated by an EC80 L-AP4 concentration for an additional 110 s in order to measure inhibiting activities of the compounds of the invention. EC80 L-AP4 concentration is the concentration giving 80% of the maximal glutamate response.
The concentration-response curves of L-AP4 or representative compounds of the present invention were generated using the Prism GraphPad software (Graph Pad Inc, San Diego, USA). The curves were fitted to a four-parameter logistic equation: […]
allowing determination of IC50 values.
The Table 3 below represents the mean IC50 obtained from at least three independent experiments of selected molecules performed in duplicate.

T1 sequence (Q14831 35-922 isoform Q14831-2): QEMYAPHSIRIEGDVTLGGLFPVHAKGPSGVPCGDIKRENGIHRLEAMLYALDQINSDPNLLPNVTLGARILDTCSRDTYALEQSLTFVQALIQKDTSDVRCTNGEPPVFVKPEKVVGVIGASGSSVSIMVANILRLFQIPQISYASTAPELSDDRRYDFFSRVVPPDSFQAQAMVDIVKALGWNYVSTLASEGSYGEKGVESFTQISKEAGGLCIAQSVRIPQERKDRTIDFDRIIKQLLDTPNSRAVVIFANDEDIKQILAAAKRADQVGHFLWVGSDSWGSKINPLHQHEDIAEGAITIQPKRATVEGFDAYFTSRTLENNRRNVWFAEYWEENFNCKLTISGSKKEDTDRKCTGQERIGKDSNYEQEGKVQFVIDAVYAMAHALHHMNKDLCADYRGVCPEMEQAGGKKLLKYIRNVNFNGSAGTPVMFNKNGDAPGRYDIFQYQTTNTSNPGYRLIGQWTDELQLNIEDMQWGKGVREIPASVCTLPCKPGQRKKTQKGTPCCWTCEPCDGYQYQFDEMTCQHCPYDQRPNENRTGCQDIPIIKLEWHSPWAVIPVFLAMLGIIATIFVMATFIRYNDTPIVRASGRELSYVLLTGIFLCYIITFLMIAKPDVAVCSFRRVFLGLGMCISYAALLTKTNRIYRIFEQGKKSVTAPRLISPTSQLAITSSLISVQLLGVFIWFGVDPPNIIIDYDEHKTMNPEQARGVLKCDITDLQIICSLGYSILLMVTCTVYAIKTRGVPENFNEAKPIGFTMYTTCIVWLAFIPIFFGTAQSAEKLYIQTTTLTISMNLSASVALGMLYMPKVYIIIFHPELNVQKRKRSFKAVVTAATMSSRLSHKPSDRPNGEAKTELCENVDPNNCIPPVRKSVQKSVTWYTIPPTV

`COc1cccc(-n2c(C)c3cnn(-c4cccc(CNC(C)=O)c4)c(=O)c3c2C)c1` [1-115] and `COc1cccc(-n2c(C)c3cnn(-c4cccc(C(N)=O)c4)c(=O)c3c2C)c1` [1-73] fall in the same range of IC50: 0.1 to 1 µM for the first, 0.1 to 1 µM for the second.

`COc1cc(-n2c(C)c3cnn(-c4ccccn4)c(=O)c3c2C)ccc1C` [1-79] and `COc1cccc(-n2c(C)c3cnn(-c4ccccn4)c(=O)c3c2C)c1` [1-44] fall in the same range of IC50: 0.1 to 1 µM for the first, 0.1 to 1 µM for the second.

`CNC(=O)Cc1ccc(-n2ncc3c(C)n(-c4cccc(N5CCC5)c4)c(C)c3c2=O)cc1` [1-180] and `COCCOc1ccc(-n2ncc3c(C)n(-c4cccc(N5CCC5)c4)c(C)c3c2=O)cc1` [1-162] cannot be ordered by IC50: < 0.1 µM for the first, < 0.1 µM for the second.

First: Cc1cccnc1-n1ncc2c(C)n(-c3cccc(N4CCC4)c3)c(C)c2c1=O [1-159]
Second: Cc1ccc(-n2ncc3c(C)n(-c4cccc(N5CCC5)c4)c(C)c3c2=O)cn1 [1-157]
The IC50 of the first is higher: 0.1 to 1 µM for the first, < 0.1 µM for the second. The second is the more potent here.

`COc1cccc(-n2c(C)c3cnn(-c4ncccn4)c(=O)c3c2C)c1Cl` [1-203] and `COc1cccc(-n2c(C)c3cnn(-c4ncccn4)c(=O)c3c2C)c1F` [1-234] fall in the same range of IC50: 0.1 to 1 µM for the first, 0.1 to 1 µM for the second.

First: Cc1c2cnn(-c3ccccn3)c(=O)c2c(C)n1-c1cccc(N2CCOCC2)c1 [1-90]
Second: Cc1c2cnn(-c3ccccn3)c(=O)c2c(C)n1-c1cccc(N2CCC2)c1 [1-102, 6-(3-(Azetidin-1-yl)phenyl)-5,7-dimethyl-2-(pyridin-2-yl)-2,6-dihydro-1H-pyrrolo[3,4-d]pyridazin-1-one]
The IC50 of the first is higher: 1 to 10 µM for the first, < 0.1 µM for the second. The second is the more potent here.

First: Cc1c2cnn(-c3ncccn3)c(=O)c2c(C)n1-c1ccccc1 [1-58]
Second: Cc1c2cnn(-c3ncccn3)c(=O)c2c(C)n1-c1cccc(N2CCC2)c1 [1-223]
The IC50 of the first is higher: 1 to 10 µM for the first, 0.1 to 1 µM for the second.

Compared with `CCOc1ccc(-n2ncc3c(C)n(-c4ccccc4)c(C)c3c2=O)cc1` [1-60], `Cc1c2cnn(-c3ccc(F)cc3)c(=O)c2c(C)n1-c1ccccc1` [1-11] is lower in IC50: 0.1 to 1 µM for the first, < 0.1 µM for the second. The second is the more potent here.

`COc1ccc(-n2ncc3c(C)n(-c4cccc(OC)c4)c(C)c3c2=O)nc1` [1-83] and `COc1cccc(-n2c(C)c3cnn(-c4cncc(OC)c4)c(=O)c3c2C)c1` [1-94] fall in the same range of IC50: 0.1 to 1 µM for the first, 0.1 to 1 µM for the second.

First: Cc1c2cnn(-c3ccccn3)c(=O)c2c(C)n1-c1cc(N2CCC2)ccc1F [1-196]
Second: Cc1c2cnn(-c3ccccn3)c(=O)c2c(C)n1-c1ccc(F)c(N2CCC2)c1 [1-192]
The IC50 of the first is lower: < 0.1 µM for the first, 0.1 to 1 µM for the second. The first is the more potent here.

First: Cc1c2cnn(-c3cccc(C(N)=O)c3)c(=O)c2c(C)n1-c1cccc(N2CCC2)c1 [1-152]
Second: Cc1c2cnn(-c3ccncc3)c(=O)c2c(C)n1-c1cccc(N2CCC2)c1 [1-156]
The IC50 of the first is higher: 0.1 to 1 µM for the first, < 0.1 µM for the second. The second is the more potent here.

`Cc1c(OC2CC2)cccc1-n1c(C)c2cnn(-c3ncccn3)c(=O)c2c1C` [1-200] and `Cc1c2cnn(-c3ncccn3)c(=O)c2c(C)n1-c1cccc(OC2CC2)c1F` [1-236] cannot be ordered by IC50: < 0.1 µM for the first, < 0.1 µM for the second.

`CC(=O)NCc1ccc(-n2ncc3c(C)n(-c4ccccc4)c(C)c3c2=O)cc1` [1-104] and `CC(=O)c1ccc(-n2ncc3c(C)n(-c4ccccc4)c(C)c3c2=O)cc1` [1-27] fall in the same range of IC50: 0.1 to 1 µM for the first, 0.1 to 1 µM for the second.

`COc1cccc(-n2c(C)c3cnn(-c4ccc(OC)c(OC)c4)c(=O)c3c2C)c1` [1-117] and `COC(=O)c1ccc(-n2ncc3c(C)n(-c4cccc(OC)c4)c(C)c3c2=O)cc1OC` [1-105] fall in the same range of IC50: 0.1 to 1 µM for the first, 0.1 to 1 µM for the second.

`Cc1c2cnn(-c3ccccn3)c(=O)c2c(C)n1-c1cccc(OC2CC2)c1F` [1-235] and `Cc1c(OC(F)F)cccc1-n1c(C)c2cnn(-c3ccccn3)c(=O)c2c1C` [1-232] fall in the same range of IC50: 0.1 to 1 µM for the first, 0.1 to 1 µM for the second.

`COc1cccc(-n2c(C)c3cnn(-c4cccc(C(=O)N(C)C)c4)c(=O)c3c2C)c1` [1-112] and `COc1cccc(-n2c(C)c3cnn(-c4ccc(C(=O)N(C)C)cc4)c(=O)c3c2C)c1` [1-75] fall in the same range of IC50: 0.1 to 1 µM for the first, 0.1 to 1 µM for the second.

`CCOc1cccc(-n2c(C)c3cnn(-c4ccccn4)c(=O)c3c2C)c1` [1-77] and `CCc1c2c(=O)n(-c3ccccn3)ncc2c(C)n1-c1cccc(OC)c1` [1-78] fall in the same range of IC50: 0.1 to 1 µM for the first, 0.1 to 1 µM for the second.

`COCc1ccc(-n2ncc3c(C)n(-c4cccc(N5CCOCC5)c4)c(C)c3c2=O)cc1` [1-69] and `COc1ccc(-n2ncc3c(C)n(-c4cccc(N5CCOCC5)c4)c(C)c3c2=O)cc1` [1-67] fall in the same range of IC50: 0.1 to 1 µM for the first, 0.1 to 1 µM for the second.

`Cc1cccc(-n2ncc3c(C)n(-c4ccccc4)c(C)c3c2=O)c1` [1-14] and `COc1cccc(-n2ncc3c(C)n(-c4ccccc4)c(C)c3c2=O)c1` [1-12] cannot be ordered by IC50: < 0.1 µM for the first, < 0.1 µM for the second.

`Cc1c2cnn(-c3ccccc3)c(=O)c2c(C)n1-c1ccccc1Cl` [1-19] and `Cc1c2cnn(-c3ccccc3Cl)c(=O)c2c(C)n1-c1ccccc1` [1-20] fall in the same range of IC50: 0.1 to 1 µM for the first, 0.1 to 1 µM for the second.

`COc1cc(-n2ncc3c(C)n(-c4cccc(N5CCC5)c4)c(C)c3c2=O)ccc1CO` [1-166] and `COc1ccc(-n2ncc3c(C)n(-c4cccc(N5CCC5)c4)c(C)c3c2=O)cc1CO` [1-163] cannot be ordered by IC50: < 0.1 µM for the first, < 0.1 µM for the second.

First: Cc1c2cnn(-c3cccc(N4CCOCC4)c3)c(=O)c2c(C)n1-c1cccc(N2CCC2)c1 [1-167]
Second: Cc1c2cnn(-c3ccc(N4CCNC(=O)C4)cc3)c(=O)c2c(C)n1-c1cccc(N2CCC2)c1 [1-178]
The IC50 of the first is higher: 0.1 to 1 µM for the first, < 0.1 µM for the second.

`Cc1c2cnn(-c3ncccn3)c(=O)c2c(C)n1-c1cccc2c1ccn2C1CC1` [1-198] and `Cc1c2cnn(-c3ncc(F)cn3)c(=O)c2c(C)n1-c1cccc2c1ccn2C1CC1` [1-214] cannot be ordered by IC50: < 0.1 µM for the first, < 0.1 µM for the second.

`Cc1c2cnn(-c3cccnc3)c(=O)c2c(C)n1-c1ccccc1` [1-9] and `Cc1c2cnn(-c3ccncc3)c(=O)c2c(C)n1-c1ccccc1` [1-37] fall in the same range of IC50: 0.1 to 1 µM for the first, 0.1 to 1 µM for the second.

Compared with `Cc1c2cnn(-c3ccc(N4CCOCC4)cc3)c(=O)c2c(C)n1-c1ccccc1` [1-93], `Cc1c2cnn(-c3ccc(S(N)(=O)=O)cc3)c(=O)c2c(C)n1-c1ccccc1` [1-28] is lower in IC50: 0.1 to 1 µM for the first, < 0.1 µM for the second.

Compared with `Cc1ccc(-n2c(C)c3cnn(-c4ccccn4)c(=O)c3c2C)c(C)c1` [1-201], `Cc1ccc(-n2c(C)c3cnn(-c4ccccn4)c(=O)c3c2C)nc1` [1-56] is higher in IC50: 0.1 to 1 µM for the first, 1 to 10 µM for the second.

First: Cc1c2cnn(-c3ccccn3)c(=O)c2c(C)n1-c1cccc(-c2ccco2)c1 [1-136]
Second: Cc1c2cnn(-c3ccccn3)c(=O)c2c(C)n1-c1cccc(C#N)c1 [1-54]
The IC50 of the first is lower: < 0.1 µM for the first, 1 to 10 µM for the second.

`Cc1c2cnn(-c3ccccc3F)c(=O)c2c(C)n1-c1cccc(N2CCC2)c1` [1-177] and `Cc1c2cnn(-c3ccccn3)c(=O)c2c(C)n1-c1cccc(N2CCCCC2)c1` [1-143] cannot be ordered by IC50: < 0.1 µM for the first, < 0.1 µM for the second.

Compared with `COCCNc1ccc(-n2c(C)c3cnn(-c4ccccc4)c(=O)c3c2C)cc1` [1-42], `COc1ccccc1-n1c(C)c2cnn(-c3ccccc3)c(=O)c2c1C` [1-18] is lower in IC50: 1 to 10 µM for the first, 0.1 to 1 µM for the second. The second is the more potent here.

First: COc1cccc(-n2c(C)c3cnn(-c4ccnc(OC)c4)c(=O)c3c2C)c1 [1-121]
Second: COc1cccc(-n2c(C)c3cnn(-c4ccc(N5CCOCC5)nc4)c(=O)c3c2C)c1 [1-91]
The IC50 of the first is lower: < 0.1 µM for the first, 0.1 to 1 µM for the second.

First: Cc1c2cnn(-c3ccccc3)c(=O)c2c(C)n1-c1ccccn1 [1-25]
Second: CCc1ccc(-n2c(C)c3cnn(-c4ccccn4)c(=O)c3c2C)cc1 [1-86]
The IC50 of the first is higher: 1 to 10 µM for the first, 0.1 to 1 µM for the second.

`COc1cc(F)ccc1-n1c(C)c2cnn(-c3ccccn3)c(=O)c2c1C` [1-191] and `Cc1c2cnn(-c3nccs3)c(=O)c2c(C)n1-c1cccc(N2CCC2)c1` [1-227] fall in the same range of IC50: 1 to 10 µM for the first, 1 to 10 µM for the second.

For `Cc1cncc(-n2ncc3c(C)n(-c4cccc(N5CCC5)c4)c(C)c3c2=O)c1` [1-158], the IC50 was < 0.1 µM.
